Source: US20250009763A1, “METHODS FOR EXTENDING LIFESPAN AND/OR DELAYING AGING” (priority 2023, published 2025)

Key:
[1] = tested on: tor1Δ deletion strain of yeast; experiment: RLS of tor1Δ deletion strain; assay type: cell-based, Saccharomyces cerevisiae; conditions: data not shown
aged C57BL/6J mice = experiment: Glucose tolerance; assay type: in vivo, mouse; conditions: between the two treatment groups; data not shown
p21 = p21 expression in HUVECs, western blot; assay type: cell-based, human; conditions: HUVECs at PDL11, 1 or 2 μM; FIG. 3B
Method: For the population doubling (PD) assay, HUVECs (1×10^5 cells/3.5 cm dish) were propagated in the presence of DMSO (i.e., control) or PN6 (1 or 2 μM) until senescence (Day 41), and the cell numbers in each passage were recorded to generate a growth curve that represented the cumulative population doubling. The population doubling levels (PDLs) of HUVECs were calculated in every culture to indicate the proliferation capacity of HUVECs under the respective conditions. The population doublings (PDs) were estimated using the equation: PDL=3.32 (log (total viable cells at harvest/total viable cells at seeding). Also, HUVECs at passages PDL4 and PDL11 cultured in 0 μM (i.e., DMSO alone), 1 μM, or 2 μM PN6 were harvested for further analyses (e.g., western blot and SA-β-gal staining).
Cells were harvested with a 1.25× Laemmli buffer and lysed in RIPA lysis buffer containing 1% of Triton X-100 and a protease inhibitor cocktail, and total protein concentrations were measured with a protein assay kit. Proteins in the samples of the lysates with the same amounts of total protein were separated by sodium dodecyl sulfate polyacrylamide gel electrophoresis (SDS-PAGE) (10% polyacrylamide gels) and analyzed by immunoblotting. […] Protein quantification was performed by software.

SIRT1 = molecular target: T1, SIRT1 (Homo sapiens, UniProt Q96EB6); experiment: Acetylation of p53 (K382) via UV irradiation, western blot, IMR90 cells; assay type: cell-based; conditions: FIGS. 2G-2H
T1 construct: endogenous in cells; host or cells: U2OS cells; IMR90 cells
T1 sequence (Q96EB6 1-747): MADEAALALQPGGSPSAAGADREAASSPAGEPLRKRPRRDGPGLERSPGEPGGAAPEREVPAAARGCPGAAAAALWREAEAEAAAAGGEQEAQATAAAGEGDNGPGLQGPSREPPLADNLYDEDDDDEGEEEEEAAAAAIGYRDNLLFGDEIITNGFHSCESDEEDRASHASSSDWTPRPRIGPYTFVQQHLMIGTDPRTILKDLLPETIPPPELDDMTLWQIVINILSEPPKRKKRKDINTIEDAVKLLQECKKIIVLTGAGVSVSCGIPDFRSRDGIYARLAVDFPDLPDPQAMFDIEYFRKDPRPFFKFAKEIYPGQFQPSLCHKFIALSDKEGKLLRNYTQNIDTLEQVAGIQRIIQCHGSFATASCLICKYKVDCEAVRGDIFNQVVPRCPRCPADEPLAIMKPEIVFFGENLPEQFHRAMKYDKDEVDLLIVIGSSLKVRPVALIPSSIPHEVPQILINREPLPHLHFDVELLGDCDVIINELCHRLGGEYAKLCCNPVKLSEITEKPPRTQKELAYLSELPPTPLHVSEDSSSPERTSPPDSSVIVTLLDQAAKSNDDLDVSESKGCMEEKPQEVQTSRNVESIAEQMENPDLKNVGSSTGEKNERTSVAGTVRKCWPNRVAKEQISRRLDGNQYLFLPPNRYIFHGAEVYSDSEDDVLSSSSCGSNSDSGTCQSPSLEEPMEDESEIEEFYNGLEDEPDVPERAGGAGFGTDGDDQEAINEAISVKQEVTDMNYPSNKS
Method: U2OS cells (1.2×10^5 cells/dish) or IMR90 cells (3.0×10^5 cells/dish) were seeded into a 3.5 cm culture dish, and incubated with 0, 10, 25, 50, or 100 μM PN6 for 16 hours, before subjected to UVB irradiation at 7.5 mJ/m^2 (for U2OS cells) or 5.0 mJ/m^2 (for IMR90 cells) for 4 hours.
Cells were harvested with a 1.25× Laemmli buffer and lysed in RIPA lysis buffer containing 1% of Triton X-100 and a protease inhibitor cocktail, and total protein concentrations were measured with a protein assay kit. Proteins in the samples of the lysates with the same amounts of total protein were separated by sodium dodecyl sulfate polyacrylamide gel electrophoresis (SDS-PAGE) (10% polyacrylamide gels) and analyzed by immunoblotting. Primary antibodies against p53ac (K382) (1:1,000), p21 (1:1,000), and 3-actin (1:200,000) were applied to detect the corresponding proteins. Horseradish peroxidase (HRP)-conjugated secondary antibodies against mouse IgG were then incubated with the membranes, and proteins were visualized by chemiluminescence according to the manufacturer's instructions. Protein quantification was performed by software.

yeast MEP strain ZHY2 = experiment: Mother enrichment program (MEP) assay; assay type: cell-based, Saccharomyces cerevisiae; conditions: 0-100 μM PN6, particularly above 10 μM; FIGS. 1A-1D
Method: The MEP strain ZHY2 cells were cultured at 30° C. overnight in liquid yeast 5 extract peptone dextrose (YEPD) medium containing 0, 0.1, 0.5, 2, 10, 25, 50, or 100 μM PN6, and the cultures were diluted to A600=0.25 and recovered to the log phase. Cultures were counted and inoculated in culture tubes at a cell density of 2×10^3 cells/ml. Estradiol was added to the mixtures to achieve a final concentration of 1 μM, and the mixtures were incubated in a roller drum at 50 rpm and 30° C. for 60 hours. Each group was monitored by harvesting samples at the indicated time points. The collected samples were washed and plated in solid YEPD media without estradiol, and the viability is reported as CFUs per 500 μl. The software OpenCFU 3.8 was used to calculate colonies.

[2] = tested on: sir2Δfob1Δ mutant strain of yeast; experiment: RLS of sir2Δfob1Δ double deletion strain; assay type: cell-based, Saccharomyces cerevisiae; conditions: 25 μM; FIG. 2A
Method: The micromanipulation of the yeast cells was carried out as follows. Prior to analysis, yeast strains BY4741 (WT), BY4741-fob1Δ (fob1Δ), or BY4741-sir2Δfob1Δ (sir2Δfob1Δ) were plated onto fresh solid YEPD medium and grown at 30° C. for two days. Then, individual colonies were picked and grown in solid YEPD media containing: (1) dimethyl sulfoxide (DMSO), (2) 10, 25, or 50 μM PN6, or (3) 25 μM β-sitosterol at 30° C. overnight, and a small number of yeast cells were then plated onto a fresh YEPD plate for lifespan analysis. After overnight growth on the lifespan plates, the cells were arrayed on the plate using a micromanipulator and allowed to grow for approximately 3 hours. Virgin daughter cells were selected and subjected to lifespan analysis. In the lifespan experiments, the plates were incubated at 30° C. during the day and stored at 4° C. overnight. Each experiment consisted of more than 50 mother cells and was independently repeated three times.

With `CCC(CC[C@@H](C)C1CCC2C3CC(=O)[C@H]4C[C@@H](O)CC[C@]4(C)C3CC[C@@]21C)C(C)C` (stereo in doubt) [PN6, (24S)-3β-hydroxy-5α-stigmastan-6-one] the “ability to increase yeast RLS upon deletion of the TOR1 gene” value [1] was “not affected”, the glucose tolerance (aged C57BL/6J mice) was “no significant differences” and the p21 expression level (p21) was “decreased dose-dependently”. For the same compound, the “SIRT1 activity / acetylation of P53 at K382” value (SIRT1) was “increased SIRT1 activity to reverse acetylation of P53 at K382”, the “viability of yeast ZHY2” value (yeast MEP strain ZHY2) was “increased proportionally with the concentration of PN6” and the “extension of lifespan of sir2Δfob1Δ mutant strain” value [2] was “unable to extend the lifespan”.
